biological target: T1, Carbonic anhydrase 4 (Bos taurus, UniProt Q95323)
T1 sequence (Q95323 whole entry): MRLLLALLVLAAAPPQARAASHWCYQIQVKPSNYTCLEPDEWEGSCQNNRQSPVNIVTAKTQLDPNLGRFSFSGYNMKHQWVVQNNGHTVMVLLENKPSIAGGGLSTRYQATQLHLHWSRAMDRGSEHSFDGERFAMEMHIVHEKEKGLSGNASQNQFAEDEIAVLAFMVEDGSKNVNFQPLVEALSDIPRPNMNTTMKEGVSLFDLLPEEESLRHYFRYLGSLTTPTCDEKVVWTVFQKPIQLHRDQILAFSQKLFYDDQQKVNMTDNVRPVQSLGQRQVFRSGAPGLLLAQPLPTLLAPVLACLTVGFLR

Ki [µM] | Structure (SMILES)
0.01 | Cn1cccc1/C=N/Cc1ccc(S(N)(=O)=O)cc1
0.025 | NC(=O)Nc1ccc(S(=O)(=O)Nc2cccc(S(N)(=O)=O)c2)cc1
0.012 | NS(=O)(=O)c1ccc(CC/N=C/c2ccncc2)cc1
0.014 | Cc1ccc(S(=O)(=O)NC(=O)Nc2c(S(N)(=O)=O)cc(S(N)(=O)=O)c(Cl)c2Cl)cc1
0.02 | NC(=O)Nc1ccc(S(=O)(=O)Nc2ccc(S(N)(=O)=O)cc2)cc1
0.07 | NS(=O)(=O)c1ccc(CCNC(=S)Nc2ccccc2)cc1
0.011 | NS(=O)(=O)c1ccc(CC/N=C/c2ccccc2OC(=O)NS(=O)(=O)c2ccccc2)cc1
0.01 | NS(=O)(=O)c1ccc(CC/N=C/c2ccc[nH]2)cc1
0.008 | Cn1cccc1/C=N/CCc1ccc(S(N)(=O)=O)cc1
0.024 | NS(=O)(=O)c1ccc(CCNC(=S)NC(=O)Nc2ccc(Cl)c(Cl)c2)cc1
0.14 | NS(=O)(=O)c1ccc(CC/N=C/c2cccc([N+](=O)[O-])c2)cc1
0.008 | NS(=O)(=O)c1nnc(NC(=O)Nc2ccc(Cl)c(Cl)c2)s1
0.12 | Cc1ccc(S(=O)(=O)NC(=O)Oc2ccccc2/C=N/CCc2ccc(S(N)(=O)=O)cc2)cc1

Structure (SMILES) | Ki [µM]
NS(=O)(=O)c1ccc(CC/N=C/c2ccccc2OC(=O)NS(=O)(=O)c2ccc(Cl)cc2)cc1 | 0.16

From ChEMBL document CHEMBL1140631, “Carbonic anhydrases as targets for medicinal chemistry” (Bioorg Med Chem, 2007)
